This is an account of results in patent US20090209460A1, “COMPOSITIONS AND METHODS FOR TREATING OBESITY AND RELATED METABOLIC DISORDERS” (Amylin Pharmaceuticals, Inc., priority 2005, published 2009).

SMILES strings stand for the structures. Read-outs that look alike come from different tables or passages of the source. Residues, ends and D or L forms follow the SMILES beside them.

The test system of series [1] is NIH/Swiss mice. As to the kind of experiment: acute food intake assay, lean overnight-fasted NIH/Swiss mice, intraperitoneal injection. The series is classed as in vivo, mouse. The note with it: for Food Intake Inhibition: mouse assay, dose of 200 mg/kg, measured at 60 minutes; for FI (60′, 200): food intake, % change relative to control, 60 min. How it is done: The effect of NMX Peptides, FNX Peptides or NMX Receptor agonists on food intake when systemically administered was investigated using an acute food intake assay. This assay measured food consumption in lean subjects. Lean, group-housed, overnight-fasted NIH/Swiss mice. All in vivo tests were performed with peripheral injections of peptide. […] The dose-response data are presented herein. The protocol is described below. Female NIH/Swiss mice (8-24 weeks old) were group housed with a 12:12 hour light:dark cycle, with lights on at 0300. Water and a standard pelleted mouse chow diet are available ad libitum, except as noted. Animals are fasted starting at approximately 1530 hrs, 1 day prior to experiment. At time=0 min, all animals are given an intraperitoneal injection of vehicle or polypeptide in a volume of 200 uL/mouse and immediately given a pre-weighed amount (10-15 g) of the standard chow. Food is removed and weighed at 30, 60, and 120 minutes to determine the amount of food consumed. The effects of treatment on food intake are expressed as % change relative to control.

Series [2] in a line: brush border membrane (BBM) stability assay. The series is classed as in vitro ADME, human. The settings on record: brush border membrane extract (e.g. kidney). How it is done: Some exemplary NMX Peptides and FNX Peptides were tested for stability in a brush border membrane (BBM) assay as described herein. To determine the enzymatic stability of peptide hormones peptides are incubated with a preparation of human brush border membranes extract (e.g., kidney), and the stability of the peptide is determined by measuring concentration of the intact peptide at specific intervals. The brush border membrane extract contains dipeptidyl peptidase IV (DPP-IV), neutral endopeptidases, peptidyl-dipeptidase A, carboxypeptidases and aminopeptidases. These are the primary enzymes that degrade peptides in vivo and are found in the kidneys, liver, lungs and pancreas. Resistance against these human proteases would increase peptide half-life. In the BBM assay test peptide was subjected to digestion over a period of five (5) hours with human brush border membrane extracts, e.g. kidney, at 37° C. At desired timepoints digestion was stopped by addition of quench solution, typically 50% ACN, 1% FA. After centrifugation to remove membrane debris, supernatant was subjected to mass spectrometry using a selected ion scan for the intact molecule of interest. Values are expressed as a percent of stable. A value of at least 80 or greater is regarded as an extremely stable molecule. A value of at least 70 or greater is a molecule with significant stability.

[3] abbreviates: percent compound remaining after a 5 hour incubation, human brush border membrane assay, read-out: hBBM.
[4] abbreviates: percent of stable, human brush border membrane extracts, five hours, 37° C., read-out: BBM.

As to `CC(C)C[C@H](NC(=O)[C@H](CCCCN)NC(=O)[C@H](CCC(N)=O)NC(=O)[C@@H](NC(=O)[C@H](CCCCN)NC(=O)[C@H](CO)NC(=O)[C@H](Cc1ccc(O)cc1)NC(=O)[C@H](Cc1c[nH]cn1)NC(=O)[C@H](Cc1ccccc1)NC(=O)[C@H](CC(C)C)NC(=O)[C@@H](N)Cc1ccccc1)[C@@H](C)O)C(=O)NCC(=O)N[C@@H](CCCCN)C(=O)N[C@@H](CO)C(=O)N[C@@H](CC(N)=O)C(=O)N[C@@H](CCC(=O)O)C(=O)N[C@@H](CCC(=O)O)C(=O)N[C@@H](CC(C)C)C(=O)N[C@@H](CCC(N)=O)C(=O)N[C@@H](CO)C(=O)N1CCC[C@H]1C(=O)N[C@@H](CO)C(=O)N[C@@H](CCCNC(=N)N)C(=O)NCC(=O)N[C@@H](Cc1ccc(O)cc1)C(=O)N[C@@H](Cc1ccccc1)C(=O)N[C@@H](CC(C)C)C(=O)N[C@@H](Cc1ccccc1)C(=O)N[C@@H](CCCNC(=N)N)C(=O)N1CCC[C@H]1C(=O)N[C@@H](CCCNC(=N)N)C(=O)N[C@@H](CC(N)=O)C(N)=O` (H-FLFHYSKTQKLGKSNEELQSPSRGYFLFRPRN-NH2; N-terminus assumed), the “Food Intake Inhibition” value in series [1] was −79%. Besides, the remaining at 5 h in series [2] (setting [3]) came to 77%.
Turning to `CC(C)C[C@H](NC(=O)[C@H](CCCCN)NC(=O)[C@H](CCC(N)=O)NC(=O)[C@@H](NC(=O)[C@H](CCCCN)NC(=O)[C@H](CO)NC(=O)[C@@H](N)Cc1ccc(O)cc1)[C@@H](C)O)C(=O)NCC(=O)N[C@@H](CCCCN)C(=O)N[C@@H](CO)C(=O)N[C@@H](CC(N)=O)C(=O)N[C@@H](CCC(=O)O)C(=O)N[C@@H](CCC(=O)O)C(=O)N[C@@H](CC(C)C)C(=O)N[C@@H](CCC(N)=O)C(=O)N[C@@H](CO)C(=O)N1CCC[C@H]1C(=O)N[C@@H](CO)C(=O)N[C@@H](CCCNC(=N)N)C(=O)NCC(=O)N[C@@H](Cc1ccc(O)cc1)C(=O)N[C@@H](Cc1ccccc1)C(=O)N[C@@H](CC(C)C)C(=O)N[C@@H](Cc1ccccc1)C(=O)N[C@@H](CCCNC(=N)N)C(=O)N1CCC[C@H]1C(=O)N[C@@H](CCCNC(=N)N)C(=O)N[C@@H](CC(N)=O)C(N)=O` (H-YSKTQKLGKSNEELQSPSRGYFLFRPRN-NH2; N-terminus assumed), in series [1], the “Food Intake Inhibition” value is reported as −69%. The remaining at 5 h in series [2] (setting [3]) stood at 67%.
The corresponding values for `CC(C)C[C@H](NC(=O)[C@H](CCCCN)NC(=O)[C@H](CCC(N)=O)NC(=O)[C@@H](NC(=O)[C@H](CCCCN)NC(=O)[C@H](CO)NC(=O)[C@H](Cc1ccc(O)cc1)NC(=O)[C@H](Cc1c[nH]cn1)NC(=O)[C@H](Cc1ccccc1)NC(=O)[C@H](CC(C)C)NC(=O)[C@@H](N)Cc1ccccc1)[C@@H](C)O)C(=O)NCC(=O)N[C@@H](CCCCN)C(=O)N[C@@H](CO)C(=O)N[C@@H](CC(N)=O)C(=O)N[C@H](C(=O)N[C@H](C(=O)N[C@@H](CCC(=O)O)C(=O)N[C@@H](CCC(=O)O)C(=O)N[C@@H](CC(C)C)C(=O)N[C@@H](CCC(N)=O)C(=O)N[C@@H](CO)C(=O)N1CCC[C@H]1C(=O)N[C@@H](Cc1ccccc1)C(=O)N[C@@H](C)C(=O)N[C@@H](CO)C(=O)N[C@@H](CCC(N)=O)C(=O)N[C@@H](CO)C(=O)N[C@@H](CCCNC(=N)N)C(=O)NCC(=O)N[C@@H](Cc1ccccc1)C(=O)N[C@@H](Cc1ccccc1)C(=O)N[C@@H](CC(C)C)C(=O)N[C@@H](Cc1ccccc1)C(=O)N[C@@H](CCCNC(=N)N)C(=O)N1CCC[C@H]1C(=O)N[C@@H](CCCNC(=N)N)C(=O)N[C@@H](CC(N)=O)C(N)=O)C(C)C)C(C)C` [(Phe31]FN38] (H-FLFHYSKTQKLGKSNVVEELQSPFASQSRGFFLFRPRN-NH2; N-terminus assumed) are −64% and 81%.
For `CC(C)C[C@H](NC(=O)[C@H](Cc1ccccc1)NC(=O)[C@H](Cc1ccc(O)cc1)NC(=O)CN)C(=O)N[C@@H](Cc1ccccc1)C(=O)N[C@@H](CCCNC(=N)N)C(=O)N1CCC[C@H]1C(=O)N[C@@H](CCCNC(=N)N)C(=O)N[C@@H](CC(N)=O)C(N)=O` [Compound 163357, reference compound] (H-GYFLFRPRN-NH2; N-terminus assumed), the “activity in food intake assays” value in series [1] (doses up to 170 nmol/kg) was “inactive”. Also, in series [1], the “FI (60′, 200)” value amounted to 26%.
As for `CC[C@H](C)[C@H](NC(=O)[C@@H](NC(=O)CNC(=O)CNC(=O)[C@@H]1CCCN1C(=O)[C@@H](NC(=O)[C@H](CCC(N)=O)NC(=O)[C@@H](NC(=O)[C@H](CCC(=O)O)NC(=O)[C@H](CCC(=O)O)NC(=O)[C@H](CC(=O)O)NC(=O)[C@H](CO)NC(=O)[C@H](CC(N)=O)NC(=O)[C@H](CO)NC(=O)[C@H](CCCCN)NC(=O)CNC(=O)[C@H](CC(C)C)NC(=O)[C@H](CCCCN)NC(=O)[C@H](CCC(N)=O)NC(=O)[C@@H](NC(=O)[C@H](CCCCN)NC(=O)[C@H](CO)NC(=O)[C@H](Cc1ccc(O)cc1)NC(=O)[C@H](Cc1c[nH]cn1)NC(=O)[C@H](Cc1ccccc1)NC(=O)[C@H](CC(C)C)NC(=O)[C@@H](N)Cc1ccccc1)[C@@H](C)O)C(C)C)C(C)C)C(C)C)C(=O)N[C@@H](CO)C(=O)N[C@@H](CC(N)=O)C(=O)NCC(N)=O` [Compound 165061] (H-FLFHYSKTQKLGKSNSDEEVQVPGGVISNG-NH2; N-terminus assumed), the “FI (60′, 200)” value in series [1] amounted to 0%. Also, the remaining at 5 h in series [2] (setting [4]) is 57%.
As to `CC(C)C[C@H](NC(=O)[C@H](CCCCN)NC(=O)[C@H](CCC(N)=O)NC(=O)[C@@H](NC(=O)[C@H](CCCCN)NC(=O)[C@H](CO)NC(=O)[C@H](Cc1ccc(O)cc1)NC(=O)[C@H](Cc1c[nH]cn1)NC(=O)[C@H](Cc1ccccc1)NC(=O)[C@H](CC(C)C)NC(=O)[C@@H](N)Cc1ccccc1)[C@@H](C)O)C(=O)NCC(=O)N[C@@H](CCCCN)C(=O)N[C@@H](CO)C(=O)N[C@@H](CC(N)=O)C(=O)N[C@H](C(=O)N[C@H](C(=O)N[C@@H](CCC(=O)O)C(=O)N[C@@H](CCC(=O)O)C(=O)N[C@@H](CC(C)C)C(=O)N[C@@H](CCC(N)=O)C(=O)N[C@@H](CO)C(=O)N1CCC[C@H]1C(=O)N[C@@H](Cc1ccccc1)C(=O)N[C@@H](C)C(=O)N[C@@H](CO)C(=O)N[C@@H](CCC(N)=O)C(=O)N[C@@H](CO)C(=O)N[C@@H](CCCNC(=N)N)C(=O)NCC(N)=O)C(C)C)C(C)C` [Compound 165062] (H-FLFHYSKTQKLGKSNVVEELQSPFASQSRG-NH2; N-terminus assumed), the “FI (60′, 200)” value in series [1] was found to be 0%. In series [2] (setting [4]), the remaining at 5 h amounted to 40%.
As to `CC(C)C[C@H](NC(=O)[C@H](Cc1ccccc1)NC(=O)[C@H](Cc1ccc(O)cc1)NC(=O)CNC(=O)[C@H](CO)NC(=O)[C@H](Cc1ccc(O)cc1)NC(=O)[C@H](Cc1c[nH]cn1)NC(=O)[C@H](Cc1ccccc1)NC(=O)[C@H](CC(C)C)NC(=O)[C@@H](N)Cc1ccccc1)C(=O)N[C@@H](Cc1ccccc1)C(=O)N[C@@H](CCCNC(=N)N)C(=O)N1CCC[C@H]1C(=O)N[C@@H](CCCNC(=N)N)C(=O)N[C@@H](CC(N)=O)C(N)=O` [Des-(Lys7-Gly30)FN38 or FN15] (H-FLFHYSGYFLFRPRN-NH2; N-terminus and C-terminus assumed), the remaining at 5 h in series [2] (setting [3]) turned out to be 49%.
On the same count and under the same terms, the same measure for `CC(C)C[C@H](NC(=O)[C@H](CCCCN)NC(=O)[C@H](CCC(N)=O)NC(=O)[C@@H](NC(=O)[C@H](CCCCN)NC(=O)[C@H](CO)NC(=O)[C@H](Cc1ccc(O)cc1)NC(=O)[C@H](Cc1c[nH]cn1)NC(=O)[C@H](Cc1ccccc1)NC(=O)[C@H](CC(C)C)NC(=O)[C@@H](N)Cc1ccccc1)[C@@H](C)O)C(=O)NCC(=O)N[C@@H](CCCCN)C(=O)N[C@@H](CO)C(=O)N[C@@H](CC(N)=O)C(=O)N[C@H](C(=O)N[C@H](C(=O)N[C@@H](CCC(=O)O)C(=O)N[C@@H](CCC(=O)O)C(=O)N[C@@H](CC(C)C)C(=O)N[C@@H](CCC(N)=O)C(=O)N[C@@H](CO)C(=O)N1CCC[C@H]1C(=O)N[C@@H](Cc1ccccc1)C(=O)N[C@@H](C)C(=O)N[C@@H](CO)C(=O)N[C@@H](CCC(N)=O)C(=O)N[C@@H](CO)C(=O)N[C@@H](CCCNC(=N)N)C(=O)NCC(=O)N[C@@H](Cc1ccc(O)cc1)C(=O)N[C@@H](Cc1ccccc1)C(=O)N[C@H](C(=O)N[C@@H](Cc1ccccc1)C(=O)N[C@@H](CCCNC(=N)N)C(=O)N1CCC[C@H]1C(=O)N[C@@H](CCCNC(=N)N)C(=O)N[C@@H](CC(N)=O)C(N)=O)C(C)C)C(C)C)C(C)C` [[Val33]FN38] (H-FLFHYSKTQKLGKSNVVEELQSPFASQSRGYFVFRPRN-NH2; N-terminus and C-terminus assumed): 82%.
